Consider 2 compounds from PMC9127068 (ChemMedChem, 2022).

This assay deals with T1, 5-HT1A receptor (5-HT1AR) (Homo sapiens, UniProt P08908).
T1 sequence (P08908 1-422): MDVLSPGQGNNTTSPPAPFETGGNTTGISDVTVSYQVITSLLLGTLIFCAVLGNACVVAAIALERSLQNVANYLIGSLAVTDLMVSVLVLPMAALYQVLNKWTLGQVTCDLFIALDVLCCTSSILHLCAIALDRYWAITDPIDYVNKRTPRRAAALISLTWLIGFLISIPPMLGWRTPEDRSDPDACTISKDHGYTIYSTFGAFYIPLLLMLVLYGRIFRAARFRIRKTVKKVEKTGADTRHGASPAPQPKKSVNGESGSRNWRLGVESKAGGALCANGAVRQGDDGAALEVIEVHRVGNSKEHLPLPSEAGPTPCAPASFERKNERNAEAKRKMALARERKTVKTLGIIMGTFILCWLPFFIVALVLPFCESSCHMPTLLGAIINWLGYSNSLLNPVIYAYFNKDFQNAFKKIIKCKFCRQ
The experiment in a line: radioligand displacement of [3H]-8-OH-DPAT. Format: binding. For orientation: In a radioligand displacement assay an active substance lowers the binding of a labelled ligand.

For orientation: Ki means a dissociation constant, usually derived from enzyme kinetics or from competition with a known ligand. A low value points to higher affinity. As for `CCCN(CCCCCCNS(=O)(=O)c1cccc2c(N(C)C)cccc12)C1CCc2cccc(O)c2C1` (centres unmarked) [5a], the affinity, expressed as Ki, was 1.8 nM. In other words, the single-digit nanomolar range.

`CCCN(CCCCCCNc1ccc([N+](=O)[O-])c2nonc12)C1CCc2cccc(O)c2C1` (centres unmarked) [5b] gave a Ki of 10 nM.
